# Measurements published in BigSolDB 2.1.
smiles,measurement,setting,value
CCCNS(=O)(=O)Nc1ncnc(OCCOc2ncc(Br)cn2)c1-c1ccc(Br)cc1,solubility (mole fraction),"in ethanol, 273.15 K",6.4e-05
same,solubility (mole fraction),"in ethanol, 278.15 K",8.8e-05
same,solubility (mole fraction),"in ethanol, 283.15 K",0.000117
same,solubility (mole fraction),"in ethanol, 288.15 K",0.000151
same,solubility (mole fraction),"in ethanol, 293.15 K",0.000188
same,solubility (mole fraction),"in ethanol, 298.15 K",0.000234
same,solubility (mole fraction),"in ethanol, 303.15 K",0.000293
same,solubility (mole fraction),"in ethanol, 308.15 K",0.000365
same,solubility (mole fraction),"in ethanol, 313.15 K",0.000458
same,solubility (mole fraction),"in ethyl acetate, 273.15 K",0.00338
same,solubility (mole fraction),"in ethyl acetate, 278.15 K",0.00406
same,solubility (mole fraction),"in ethyl acetate, 283.15 K",0.00483
same,solubility (mole fraction),"in ethyl acetate, 288.15 K",0.00577
same,solubility (mole fraction),"in ethyl acetate, 293.15 K",0.00681
same,solubility (mole fraction),"in ethyl acetate, 298.15 K",0.00793
same,solubility (mole fraction),"in ethyl acetate, 303.15 K",0.00921
same,solubility (mole fraction),"in ethyl acetate, 308.15 K",0.0107
same,solubility (mole fraction),"in ethyl acetate, 313.15 K",0.0122
same,solubility (mole fraction),"in isopropanol, 273.15 K",4.7e-05
same,solubility (mole fraction),"in isopropanol, 278.15 K",5.9e-05
same,solubility (mole fraction),"in isopropanol, 283.15 K",7.5e-05
same,solubility (mole fraction),"in isopropanol, 288.15 K",9.2e-05
same,solubility (mole fraction),"in isopropanol, 293.15 K",0.000114
same,solubility (mole fraction),"in isopropanol, 298.15 K",0.000141
same,solubility (mole fraction),"in isopropanol, 303.15 K",0.000172
same,solubility (mole fraction),"in isopropanol, 308.15 K",0.000206
same,solubility (mole fraction),"in isopropanol, 313.15 K",0.000246
same,solubility (mole fraction),"in methanol, 273.15 K",7.6e-05
same,solubility (mole fraction),"in methanol, 278.15 K",0.000109
same,solubility (mole fraction),"in methanol, 283.15 K",0.000145
same,solubility (mole fraction),"in methanol, 288.15 K",0.000186
same,solubility (mole fraction),"in methanol, 293.15 K",0.000232
same,solubility (mole fraction),"in methanol, 298.15 K",0.000284
same,solubility (mole fraction),"in methanol, 303.15 K",0.000358
same,solubility (mole fraction),"in methanol, 308.15 K",0.000463
same,solubility (mole fraction),"in methanol, 313.15 K",0.000602
